This experiment deals with T1, KCNQ 2/3 channels (Homo sapiens, UniProt O43525+O43526).
T1 construct: expressed in transfected cells; host or cells: HEK293
Nature of the experiment: KCNQ 2/3 channel activation, thallium flux FLIPR assay (BTC-AM dye). Particulars: for Emax: HEK293, maximum response relative to the response of 10 μM retigabine (set at 100%), HEK293 KCNQ2/KCNQ3 cells, read-out: % MAX; for EC50: HEK293 cells stably expressing human KCNQ2 and KCNQ3 subunits, thallium-induced fluorescence, 4 min compound incubation. The format is cell-based. Summed up: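 HEK293 cells stably expressing human KCNQ2/KCNQ3 were loaded with BTC-AM (3 μg/mL, 2 h, RT) and preincubated with compound for 4 min in pH 7.3 gluconate buffer containing 0.1 mM ouabain. Flux was triggered by 6 mM TlNO3/10 mM K2SO4 and read for 3 min; EC50 came from summed responses over basal, with maximum relative to 10 μM retigabine (100%).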

In patent US8859549B2, “Potassium channel modulators” (AbbVie, Inc., priority 2011, dated 2014) one finds Emax and EC50 data, which are given here for 32 molecules.

Turning to `Cc1cc(C)c(CC(=O)Nn2nc(N3CCOCC3)c3ccccc3c2=O)c(C)c1` [Example 168, N-[4-(morpholin-4-yl)-1-oxophthalazin-2(1H)-yl]-2-(2,4,6-trimethylphenyl)acetamide], the Emax came to 1.91%.

Consider `N#Cc1cc(-c2nn(NC(=O)CC3CC4CCC3C4)c(=O)c3ccccc23)ccn1` (racemic) [Example 45, (±)-2-[(exo)-bicyclo[2.2.1]hept-2-yl]-N-[4-(2-cyanopyridin-4-yl)-1-oxophthalazin-2(1H)-yl]acetamide], for which the Emax turned out to be 146% and the EC50 came to 381 nM. For `CC(C)(C)Sc1nn(NC(=O)Cc2ccc(Cl)cc2)c(=O)c2ccccc12` [Example 198, N-[4-(tert-butylsulfanyl)-1-oxophthalazin-2(1H)-yl]-2-(4-chlorophenyl)acetamide] the same measures were 120% and 134 nM. As for `Cc1ccc(C)c(CC(=O)Nn2nc(N3CCOCC3)c3ccccc3c2=O)c1` [Example 167, 2-(2,5-dimethylphenyl)-N-[4-(morpholin-4-yl)-1-oxophthalazin-2(1H)-yl]acetamide], the Emax stood at 3%. In the case of `O=C(Cc1ccc(Cl)cc1)Nn1nc(N2CCOCC2)c2ccccc2c1=O` [Example 2, 2-(4-chlorophenyl)-N-[4-(morpholin-4-yl)-1-oxophthalazin-2(1H)-yl]acetamide], the Emax was 117% and the response was half-maximal at 2700 nM (EC50). Regarding `Cc1ccc(S(=O)(=O)c2nn(NC(=O)Cc3ccc(Cl)cc3)c(=O)c3ccccc23)cc1` [Example 192, 2-(4-chlorophenyl)-N-{4-[(4-methylphenyl)sulfonyl]-1-oxophthalazin-2(1H)-yl}acetamide], the Emax was found to be 103% and the EC50 is 116 nM. Regarding `O=C(CC1CCCCC1)Nn1nc(N2CCOCC2)c2ccccc2c1=O` [Example 138, 2-cyclohexyl-N-[4-(morpholin-4-yl)-1-oxophthalazin-2(1H)-yl]acetamide], the Emax turned out to be 153% and a half-maximal response (EC50) required 3890 nM. For `O=C(CC1CC2CCC1C2)Nn1nc(-c2ccc(F)nc2)c2ccccc2c1=O` (racemic) [Example 54, (±)-2-[(exo)-bicyclo[2.2.1]hept-2-yl]-N-[4-(6-fluoropyridin-3-yl)-1-oxophthalazin-2(1H)-yl]acetamide] the same measures were 183% and 408 nM. `O=C(Cc1ccc(Cl)cc1)Nn1nc(-c2cccnc2)c2ccccc2c1=O` [Example 9, 2-(4-chlorophenyl)-N-[1-oxo-4-(pyridin-3-yl)phthalazin-2(1H)-yl]acetamide]: the Emax is 19.6%. Turning to `CC(C(=O)NCC(C)(C)C)c1nn(NC(=O)Cc2ccc(Cl)cc2)c(=O)c2ccccc12` (stereo not drawn) [Example 113, 2-(3-{[(4-chlorophenyl)acetyl]amino}-4-oxo-3,4-dihydrophthalazin-1-yl)-N-(2,2-dimethylpropyl)propanamide], the Emax stood at 21.8%. As for `O=C(Cc1cc(F)cc(F)c1)Nn1nc(Oc2ccccc2)c2ccccc2c1=O` [Example 38, 2-(3,5-difluorophenyl)-N-(1-oxo-4-phenoxyphthalazin-2(1H)-yl)acetamide], the Emax came to 122% and the EC50 amounted to 31.8 nM. The like results for `O=C(Cc1ccc(Cl)cc1)Nn1nc(Sc2ccc(Br)cc2)c2ccccc2c1=O` [Example 195, N-{4-[(4-bromophenyl)sulfanyl]-1-oxophthalazin-2(1H)-yl}-2-(4-chlorophenyl)acetamide] were, in that order, 96.9% and 432 nM. As for `O=C(Cc1ccc(Cl)cc1)Nn1nc(N2CCSCC2)c2ccccc2c1=O` [Example 91, 2-(4-chlorophenyl)-N-[1-oxo-4-(thiomorpholin-4-yl)phthalazin-2(1H)-yl]acetamide], the Emax came out at 164% and the EC50 stood at 920 nM. For `Cc1ccc(CC(=O)Nn2nc(N3CCOCC3)c3ccccc3c2=O)cc1` [Example 141, 2-(4-methylphenyl)-N-[4-(morpholin-4-yl)-1-oxophthalazin-2(1H)-yl]acetamide] the same measures were 72% and 5240 nM.

With `CCOC(=O)c1nn(NC(=O)Cc2ccc(Cl)cc2)c(=O)c2ccccc12` [Example 63, ethyl 3-{[(4-chlorophenyl)acetyl]amino}-4-oxo-3,4-dihydrophthalazine-1-carboxylate], the Emax is 64.8% and the EC50 came to 862 nM. For the molecule `O=C(CC1CC2CCC1C2)Nn1nc(Nc2cccc(Cl)c2)c2ccccc2c1=O` (racemic) [Example 35, (±)-2-[(exo)-bicyclo[2.2.1]hept-2-yl]-N-{4-[(3-chlorophenyl)amino]-1-oxophthalazin-2(1H)-yl}acetamide], the Emax is 11.4%.

On to `CCC1CN(c2nn(NC(=O)CC3CC4CCC3C4)c(=O)c3ccccc23)CCO1` (racemic) [Example 220, (±)-2-[(exo)-bicyclo[2.2.1]hept-2-yl]-N-[4-(2-ethylmorpholin-4-yl)-1-oxophthalazin-2(1H)-yl]acetamide], for which the Emax stood at 139% and the EC50 is 57.9 nM. For `O=C(Cc1ccc(Cl)cc1)Nn1nc(S(=O)(=O)c2ccncc2)c2ccccc2c1=O` [Example 203, 2-(4-chlorophenyl)-N-[1-oxo-4-(pyridin-4-ylsulfonyl)phthalazin-2(1H)-yl]acetamide] the same measures were 85% and 621 nM. For `COc1cccc(CC(=O)Nn2nc(S(=O)(=O)c3ccccc3)c3ccccc3c2=O)c1` [Example 205, 2-(3-methoxyphenyl)-N-[1-oxo-4-(phenylsulfonyl)phthalazin-2(1H)-yl]acetamide] the same measures were 71.8% and 938 nM. For `O=C(Cc1cccc([N+](=O)[O-])c1)Nn1nc(N2CCOCC2)c2ccccc2c1=O` [Example 156, N-[4-(morpholin-4-yl)-1-oxophthalazin-2(1H)-yl]-2-(3-nitrophenyl)acetamide], the Emax worked out at 32.8%.

Consider `Cc1ccsc1-c1nn(NC(=O)CC2CC3CCC2C3)c(=O)c2ccccc12` (racemic) [Example 16, (±)-2-[(exo)-bicyclo[2.2.1]hept-2-yl]-N-[4-(3-methylthiophen-2-yl)-1-oxophthalazin-2(1H)-yl]acetamide], for which the Emax amounted to 140% and the EC50 was 116 nM. In the case of `O=C(CC1CC2CCC1C2)Nn1nc(N2CCS(=O)(=O)CC2)c2ccccc2c1=O` (racemic) [Example 190, (±)-2-[(exo)-bicyclo[2.2.1]hept-2-yl]-N-[4-(1,1-dioxidothiomorpholin-4-yl)-1-oxophthalazin-2(1H)-yl]acetamide], the Emax was 74.3% and the EC50 amounted to 10600 nM.

With `CCOC(=O)C(C)c1nn(NC(=O)Cc2ccc(Cl)cc2)c(=O)c2ccccc12` (stereo not drawn) [Example 109, ethyl 2-(3-{[(4-chlorophenyl)acetyl]amino}-4-oxo-3,4-dihydrophthalazin-1-yl)propanoate], the Emax was determined as 53.2% and the EC50 stood at 1420 nM. Regarding `CN(Cc1ccccc1)c1nn(NC(=O)CC(C)(C)c2ccccc2)c(=O)c2ccccc12` [Example 52, N-{4-[benzyl(methyl)amino]-1-oxophthalazin-2(1H)-yl}-3-methyl-3-phenylbutanamide], the Emax came to 185% and a half-maximal response (EC50) required 102 nM. `O=C(Cc1ccc(Br)cc1)Nn1nc(S(=O)(=O)c2ccccc2)c2ccccc2c1=O` [Example 206, 2-(4-bromophenyl)-N-[1-oxo-4-(phenylsulfonyl)phthalazin-2(1H)-yl]acetamide]: the Emax amounted to 99.3% and a half-maximal response (EC50) required 69.3 nM. For the molecule `O=C(CC1CC2CCC1C2)Nn1nc(S(=O)(=O)Cc2ccccc2)c2ccccc2c1=O` (racemic) [Example 217, (±)-N-[4-(benzylsulfonyl)-1-oxophthalazin-2(1H)-yl]-2-[(exo)-bicyclo[2.2.1]hept-2-yl]acetamide], the Emax was 147% and a half-maximal effect (EC50) was put at 74.8 nM.

Turning to `O=C(CC1CC2CCC1C2)Nn1nc(SCc2ccccc2)c2ccccc2c1=O` (racemic) [Example 214, (±)-N-[4-(benzylsulfanyl)-1-oxophthalazin-2(1H)-yl]-2-[(exo)-bicyclo[2.2.1]hept-2-yl]acetamide], the Emax was found to be 197% and a half-maximal effect (EC50) was put at 21.7 nM. The like results for `O=C(Cc1ccc(Cl)cc1)Nn1nc(Oc2ccccc2)c2ccccc2c1=O` [Example 127, 2-(4-chlorophenyl)-N-(1-oxo-4-phenoxyphthalazin-2(1H)-yl)acetamide] were, in that order, 87.4% and 180 nM. As for `O=C(CC1CC2CCC1C2)Nn1nc(CNC(=O)OCc2ccccc2)c2ccccc2c1=O` (racemic) [Example 96, (±)-benzyl[(3-{[(exo)-bicyclo[2.2.1]hept-2-ylacetyl]amino}-4-oxo-3,4-dihydrophthalazin-1-yl)methyl]carbamate], the Emax came to 79.4% and the EC50 came out at 315 nM. For `Cc1ccsc1-c1nn(NC(=O)Cc2ccc(Cl)cc2)c(=O)c2ccccc12` [Example 15, 2-(4-chlorophenyl)-N-[4-(3-methylthiophen-2-yl)-1-oxophthalazin-2(1H)-yl]acetamide] the same measures were 124% and 858 nM.

As to `O=C(Cc1ccc(Cl)cc1)Nn1nc(CNC(=O)OC2CCCCC2)c2ccccc2c1=O` [Example 128, cyclohexyl[(3-{[(4-chlorophenyl)acetyl]amino}-4-oxo-3,4-dihydrophthalazin-1-yl)methyl]carbamate], the Emax was 21.6%.

`CC1CN(c2nn(NC(=O)Cc3cc(F)cc(F)c3)c(=O)c3ccccc23)CC(C)O1` (stereo not drawn) [Example 60, 2-(3,5-difluorophenyl)-N-[4-(2,6-dimethylmorpholin-4-yl)-1-oxophthalazin-2(1H)-yl]acetamide]: the Emax stood at 105% and the EC50 is 474 nM.

As a reminder, the EC50 is the concentration needed to bring the measured effect to its halfway point. Read a low EC50 as higher potency in that assay.
